By Kd is commonly meant a measure of binding affinity in units of concentration.

From publication PMC12381739, “Druglike Molecular Degraders of the Oncogenic RNA-Binding Protein HuR” (JACS Au, 2025) come the findings set out here.

In experiment [1] the target is T1, HuR RRM1/2 (Homo sapiens, UniProt Q15717).
T1 construct: 20 nM of the 5′-FAM RNA probe and 500 nM of HuR RRM1/2
The experiment can be described thus: Fluorescence polarization (FP) displacement assay, 5′ FAM-labeled RNA probe from HuR. The conditions noted are these: displacement of 5′-FAM RNA probe UAUUUAUUUA (20 nM) from 500 nM HuR RRM1/2; read-out: Binding affinity towards HuR in FP assay (Kd). The protocol:
Following the synthesis, our initial aim was to ensure that the new derivatives retained their affinity for HuR’s RNA-binding pocket. Thus, a binding evaluation assay was conducted. As previously reported, the RNA-binding pocket of HuR specifically recognizes the UTR sequences of mRNAs, with […] identified as a common binding motif. To evaluate the binding of each degrader, we conducted a fluorescence-based assay utilizing a 5-carboxyfluorescein (5′ FAM)-labeled reporter. This fluorescence polarization (FP) assay is based on the displacement of the 5′ FAM-labeled mRNA from HuR’s RNA-binding pocket, which provides insight into both the binding affinity of the degrader and its capacity to disrupt the HuR-mRNA interaction, thereby serving as a means of validating target engagement. When the 5′ FAM-RNA probe is bound to HuR, it forms a binary complex, resulting in slower rotational movement and a consequently high FP signal. However, when either molecule displaces the 5′ FAM-labeled RNA, the probe is released into the solution, where it undergoes rapid rotation, leading to a significant reduction in the FP signal (Figure S3). This decrease in FP serves as a quantitative measure of the degrader’s ability to compete with mRNA for HuR binding. […] As mentioned above, we synthesized a series of HuR ligand derivatives featuring indole and benzothiophene cores, along with ester and carboxylic acid functional groups.
As previously reported, the sequence of the fluorescently labeled (5′-FAM) RNA probe is […]. The assays were performed in PBS buffer (20 mM sodium phosphate, 150 mM NaCl, 1 mM dithiothreitol, 0.05% PLURONIC-127, 15% DMSO) at 293 K. Fluorescence was measured using the Synergy H1 Hybrid Multi-Mode Microplate Reader (Biotek, Agilent) with excitation and emission wavelengths set to 485 and 528 nm, respectively. Each well of a 384-well plate contained 20 nM of the 5′-FAM RNA probe and 500 nM of HuR RRM1/2. Compounds were tested at eight concentrations (0.1 nM–100 μM), with compound 10 serving as a positive control and PBS as the negative control. The protein-mRNA mixture was incubated for 1.5 h to allow for binding interactions. After this incubation, the compounds were added, and the mixture was incubated for an additional hour. The FP emission of the resulting HuR-compound complex was then recorded. The percent inhibition of binding was calculated by comparing the FP values of experimental conditions to the PBS control. The FP value corresponding to the HuR-RNA complex in the presence of DMSO was used as the 100% complexation reference, while the FP value of the labeled RNA alone was set as 0% complexation. The dissociation constant (K d) for the compound-HuR binding interaction was determined by fitting the dose–response curve to specific binding models using Prism 10.2.2. All experiments were performed in triplicate.
On the technique in general: Fluorescence polarisation rises when a labelled molecule tumbles more slowly, as on binding a larger partner.

In experiment [2] the test system is MCF-7 cells. The experiment can be described thus: Caspase-Glo 3/7 apoptosis assay. The class given is cell-based, human. The conditions noted are these: MCF-7, 10 nM. An excerpt: To elucidate the decrease in cell viability observed, we evaluated the potential increase in apoptosis using the […] Caspase-Glo 3/7 assay system. Upon cell lysis, active caspases cleave a luminogenic substrate, releasing aminoluciferin, which is subsequently converted to light by luciferase. The intensity of the signal directly correlates with the levels of apoptosis. […] This destabilization reduces the levels of proteins essential for cancer cell survival, resulting in cumulative cellular stress, diminished proliferation, and enhanced cytotoxicity. […] This enhanced effect is likely due to the catalytic nature of the molecular glue degraders, offering promising potential for cancer treatment.
MCF-7 cells were seeded in 96-well plates to 80% confluency and treated with synthesized compounds at four concentrations (1 nM–1 μM) for 24 and 48 h. Cell apoptosis was analyzed using the Caspase-Glo 3/7 Assay System (Promega, G8090). Each sample was incubated with Caspase-Glo 3/7 solution for 1 h, followed by luminescence measurement. Luminescence was measured […] using the Synergy H1 Hybrid Multi-Mode Microplate Reader (Biotek, Agilent). Cell apoptosis was calculated as the percent increase in luminescence of treated cells compared to untreated controls. All experiments were performed in triplicate.

Experiment [3] deals with MCF-7 and MDA-MB-231 cells. The experiment can be described thus: Cell counting-proliferation assay. It counts as cell-based, human. The conditions noted are these: compared to Binders 1 and 2, at 24 and 48 h.
Experimental: MCF-7 and MDA-MB-231 cells were seeded in 96-well plates to 80% confluency and treated with synthesized compounds at eight concentrations (0.1 nM–100 μM) for 24 and 48 h. Cell proliferation was assessed using the Resazurin Assay Kit (Abcam, ab228554), where each sample was incubated with 1× WST-8/CCK8 solution for 1 h. After incubation, fluorescence was measured by absorbance at 460 nm using the Synergy H1 Hybrid Multi-Mode Microplate Reader (Biotek, Agilent). Cell proliferation was calculated as the percent decrease in fluorescence of treated cells compared to untreated controls. All experiments were performed in triplicate.
Experiment [4] addresses HuR (Homo sapiens, UniProt Q15717). The experiment can be described thus: HuR western blot, dose-dependent treatment (Figure S7, cell line not stated). It counts as cell-based. Set-up: endogenous in cells; host or cells: MCF-7 or MDA-MB-231 (not given). The conditions noted are these: 48 h, normalized to vinculin. The protocol: MDA-MB-231 and MCF-7 cells were seeded in 6-well plates at approximately 60% confluency in complete growth medium and treated with synthesized compounds at the indicated concentrations or with vehicle for 24 h. Total protein was extracted using RIPA cell lysis buffer (BioPrep) containing a protease inhibitor, and protein concentration was measured using the BCA protein assay (Sigma-Aldrich) according to the manufacturer’s protocol. Approximately 30 μg of total protein were resolved on a 12% SDS-acrylamide gel and transferred to a PVDF membrane (Immobilon FL transfer membrane; Merck). The membrane was washed with 1× Tris-buffered saline (TBS) containing 0.1% (v/v) Tween-20 (TBST; Tris-base, pH 7.6, NaCl, and Tween-20) and blocked in 1× TBST containing 5% (w/v) BSA for 2 h at room temperature. The membrane was then incubated overnight at 4 °C with primary antibodies: a 1:1000 dilution of rabbit anti-ELAVL1/HuR (Cell Signaling Technology, #12582), a 1:1000 dilution of mouse anti-Bcl2 (Cell Signaling Technology, #15071), or a 1:10,000 dilution of rabbit anti-Vinculin (Cell Signaling Technology, #13901) in 1× TBST containing 5% (w/v) BSA. […] The fold change in the expression of the target proteins (HuR or Bcl2) was calculated by normalizing the band intensity to the Vinculin band intensity using ImageJ. […]

HuR, sequence (Q15717 whole entry): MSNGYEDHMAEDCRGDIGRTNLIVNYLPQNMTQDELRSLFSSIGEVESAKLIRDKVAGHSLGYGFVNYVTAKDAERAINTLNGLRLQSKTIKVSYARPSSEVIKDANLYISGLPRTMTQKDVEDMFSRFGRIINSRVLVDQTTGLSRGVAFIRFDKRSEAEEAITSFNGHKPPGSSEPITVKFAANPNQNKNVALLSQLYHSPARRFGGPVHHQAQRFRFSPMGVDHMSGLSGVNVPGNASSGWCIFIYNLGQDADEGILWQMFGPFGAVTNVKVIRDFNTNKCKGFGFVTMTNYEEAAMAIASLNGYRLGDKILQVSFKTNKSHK
T1 sequence (Q15717 18-186 limits assumed): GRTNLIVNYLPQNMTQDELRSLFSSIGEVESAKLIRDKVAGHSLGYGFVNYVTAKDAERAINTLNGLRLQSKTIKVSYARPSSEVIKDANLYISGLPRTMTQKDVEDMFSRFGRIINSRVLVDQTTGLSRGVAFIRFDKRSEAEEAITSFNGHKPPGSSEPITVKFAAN

For `O=C1CCC(N2C(=O)c3cccc(NCc4cn(-c5ccc6sc(C(=O)O)cc6c5)nn4)c3C2=O)C(=O)N1` (centres unmarked) [PRO-HuR3], the dissociation constant Kd in experiment [1] is 30 nM. Also, in experiment [2], the “apoptosis (caspase 3/7)” value is “significant increase in apoptosis”. Also, the cell proliferation result in experiment [3] is “significant decrease in cell proliferation”. Further, the results for the “HuR protein level relative to UT” value in experiment [4] (0.01 nM) and in experiment [4] (0.1 nM) were 113% and 108%, respectively.
